What all share (type): in vivo
Assay [1] relates to Setaria viridis. Kind of assay: Post-emergence herbicidal action. The following applies: 1280 g/ha, rated visually after about 3 weeks vs untreated controls. The method in brief: (§1)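 Greenhouse post-emergence spray at one-leaf stage, 1280 g/ha, 600 l/ha water with 0.5% additive; efficacy rated visually after roughly 3 weeks, 0% meaning like controls and 100% meaning dead plants.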

In assay [2] the test system is Matricaria inodora. Briefly: Post-emergence herbicidal action. The note with it: 1280 g/ha, rated visually after about 3 weeks vs untreated controls. The method in brief: as §1
Assay [3] relates to Polygonum convolvulus. Kind of assay: Post-emergence herbicidal action. The following applies: 1280 g/ha, rated visually after about 3 weeks vs untreated controls. The method in brief: as §1
The subject of assay [4] is Stellaria media. Kind of assay: Post-emergence herbicidal action. The note with it: 1280 g/ha, rated visually after about 3 weeks vs untreated controls. The method in brief: as §1
Assay [5] concerns Amaranthus retroflexus. Kind of assay: Post-emergence herbicidal action. The note with it: 1280 g/ha, rated visually after about 3 weeks vs untreated controls. The method, boiled down:
as §1

Assay [6] concerns Echinochloa crus-galli. Kind of assay: Post-emergence herbicidal action. The note with it: 1280 g/ha, rated visually after about 3 weeks vs untreated controls. The method, boiled down:
as §1

Assay [7] has as its system Alopecurus myosuroides. Kind of assay: Post-emergence herbicidal action. The note with it: 1280 g/ha, rated visually after about 3 weeks vs untreated controls. The method, boiled down:
as §1

The test system of assay [8] is Abutilon theophrasti. Briefly: Post-emergence herbicidal action. The note with it: 1280 g/ha, rated visually after about 3 weeks vs untreated controls. The method in brief: as §1
In assay [9] the test system is Veronica persica. Kind of assay: Post-emergence herbicidal action. The note with it: 1280 g/ha, rated visually after about 3 weeks vs untreated controls. The method in brief: as §1
Assay [10] concerns Viola tricolor. Briefly: Post-emergence herbicidal action. The following applies: 1280 g/ha, rated visually after about 3 weeks vs untreated controls. The method in brief:
as §1

For assay [11], the system named is Setaria viridis. Briefly: Pre-emergence herbicidal action. The note with it: 1280 g/ha, scored visually after about 3 weeks vs untreated controls. The method, boiled down:
(§2)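 Covered seeds received aqueous suspension or emulsion of formulated compound at 1280 g/ha with 0.5% additive and 600 l/ha water. Pots grew under good greenhouse conditions, and after approximately 3 weeks the effect was estimated visually as a percentage, 100% denoting plants that died.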

The subject of assay [12] is Polygonum convolvulus. Briefly: Pre-emergence herbicidal action. The note with it: 1280 g/ha, scored visually after about 3 weeks vs untreated controls. The method in brief:
as §2

The test system of assay [13] is Amaranthus retroflexus. Kind of assay: Pre-emergence herbicidal action. The note with it: 1280 g/ha, scored visually after about 3 weeks vs untreated controls. The method in brief:
as §2

Assay [14] has as its system Echinochloa crus-galli. Kind of assay: Pre-emergence herbicidal action. The following applies: 1280 g/ha, scored visually after about 3 weeks vs untreated controls. The method in brief:
as §2

Assay [15] concerns Abutilon theophrasti. Kind of assay: Pre-emergence herbicidal action. The following applies: 1280 g/ha, scored visually after about 3 weeks vs untreated controls. The method in brief: as §2
Assay [16] has as its system Veronica persica. Briefly: Pre-emergence herbicidal action. The following applies: 1280 g/ha, scored visually after about 3 weeks vs untreated controls. The method, boiled down:
as §2

Assay [17] relates to Viola tricolor. Briefly: Pre-emergence herbicidal action. The following applies: 1280 g/ha, scored visually after about 3 weeks vs untreated controls. The method in brief:
as §2

Assay [18] concerns Pharbitis purpurea. Briefly: Post-emergence herbicidal action. The note with it: 1280 g/ha, rated visually after about 3 weeks vs untreated controls. The method in brief:
as §1

The subject of assay [19] is Matricaria inodora. Kind of assay: Pre-emergence herbicidal action. The following applies: 1280 g/ha, scored visually after about 3 weeks vs untreated controls. The method in brief:
as §2

The subject of assay [20] is Stellaria media. Briefly: Pre-emergence herbicidal action. The note with it: 1280 g/ha, scored visually after about 3 weeks vs untreated controls. The method in brief:
as §2

Assay [21] deals with Hordeum murinum. Briefly: Post-emergence herbicidal action. The note with it: 1280 g/ha, rated visually after about 3 weeks vs untreated controls. The method, boiled down: as §1
The test system of assay [22] is Lolium rigidum. Kind of assay: Post-emergence herbicidal action. The note with it: 1280 g/ha, rated visually after about 3 weeks vs untreated controls. The method, boiled down: as §1
Assay [23] concerns Avena fatua. Kind of assay: Post-emergence herbicidal action. The note with it: 1280 g/ha, rated visually after about 3 weeks vs untreated controls. The method in brief:
as §1

Assay [24] relates to Hordeum murinum. Briefly: Pre-emergence herbicidal action. The following applies: 1280 g/ha, scored visually after about 3 weeks vs untreated controls. The method in brief: as §2
The subject of assay [25] is Lolium rigidum. Kind of assay: Pre-emergence herbicidal action. The following applies: 1280 g/ha, scored visually after about 3 weeks vs untreated controls. The method in brief:
as §2

In assay [26] the test system is Pharbitis purpurea. Briefly: Pre-emergence herbicidal action. The note with it: 1280 g/ha, scored visually after about 3 weeks vs untreated controls. The method, boiled down: as §2
The test system of assay [27] is Avena fatua. Kind of assay: Pre-emergence herbicidal action. The following applies: 1280 g/ha, scored visually after about 3 weeks vs untreated controls. The method in brief:
as §2

The subject of assay [28] is Alopecurus myosuroides. Kind of assay: Pre-emergence herbicidal action. The note with it: 1280 g/ha, scored visually after about 3 weeks vs untreated controls. The method, boiled down: as §2

Turning to `Cc1c(Sc2ccc(F)cc2)c(Oc2ncc(Cl)cn2)nn1C` [Example I-060], the “herbicidal activity on Setaria viridis” value in the assay on Setaria viridis [1] was found to be 80%; in the assay on Setaria viridis [11], 90%. The “herbicidal activity on Matricaria inodora” value in the assay on Matricaria inodora [2] was 80%. The “herbicidal activity on Polygonum convolvulus” value in the assay on Polygonum convolvulus [3] came to 80%; in the assay with Polygonum convolvulus [12], 100%. Further, in the assay with Stellaria media [4], the “herbicidal activity on Stellaria media” value was 100%. Besides, the “herbicidal activity on Amaranthus retroflexus” value with Amaranthus retroflexus [5] and in the assay with Amaranthus retroflexus [13] was 100% each time. For the same compound, the “herbicidal activity on Echinochloa crus-galli” value in the assay with Echinochloa crus-galli [6] worked out at 90%; in the assay on Echinochloa crus-galli [14] it was 80%. In the assay with Alopecurus myosuroides [7], the “herbicidal activity on Alopecurus myosuroides” value stood at 90%. Moreover, the “herbicidal activity on Abutilon theophrasti” value in the assay on Abutilon theophrasti [8] and with Abutilon theophrasti [15] was 80% throughout. The “herbicidal activity on Veronica persica” value in the assay with Veronica persica [9] worked out at 90%; in the assay on Veronica persica [16], 100%. The “herbicidal activity on Viola tricolor” value with Viola tricolor [10] and in the assay with Viola tricolor [17] was 100% each time.

With `Cc1c(Sc2ccc(F)cc2Cl)c(Oc2ncc(F)cn2)nn1C` [Example I-065], the “herbicidal activity on Matricaria inodora” value with Matricaria inodora [2] is recorded as 80%; in the assay with Matricaria inodora [19], 90%. Further, the “herbicidal activity on Polygonum convolvulus” value in the assay with Polygonum convolvulus [3] and in the assay on Polygonum convolvulus [12] was 100% each time. Moreover, the “herbicidal activity on Stellaria media” value was 90% with Stellaria media [4] and 100% in the assay with Stellaria media [20]. Also, the “herbicidal activity on Amaranthus retroflexus” value in the assay with Amaranthus retroflexus [5] and in the assay with Amaranthus retroflexus [13] was 100% throughout. Further, in the assay on Pharbitis purpurea [18], the “herbicidal activity on Pharbitis purpurea” value came out at 100%. Further, the “herbicidal activity on Abutilon theophrasti” value in the assay with Abutilon theophrasti [8] and in the assay with Abutilon theophrasti [15] was 80% throughout. Besides, the “herbicidal activity on Viola tricolor” value in the assay on Viola tricolor [10] and with Viola tricolor [17] was 100% each time. In addition, the “herbicidal activity on Setaria viridis” value in the assay on Setaria viridis [11] turned out to be 100%.

As for `Cc1c(Sc2ccc(F)c(F)c2)c(Oc2ncc(F)cn2)nn1C` [Example I-093], the “herbicidal activity on Setaria viridis” value with Setaria viridis [1] and with Setaria viridis [11] was 100% each time. The entries for the “herbicidal activity on Hordeum murinum” value with Hordeum murinum [21] and in the assay with Hordeum murinum [24] were 90% and 100%, respectively. In addition, the “herbicidal activity on Polygonum convolvulus” value in the assay on Polygonum convolvulus [3] and in the assay on Polygonum convolvulus [12] was 100% in each case. The “herbicidal activity on Stellaria media” value in the assay on Stellaria media [4] and with Stellaria media [20] was 100% each time. Further, the “herbicidal activity on Amaranthus retroflexus” value in the assay on Amaranthus retroflexus [5] and in the assay on Amaranthus retroflexus [13] was 100% in each case. Besides, the “herbicidal activity on Lolium rigidum” value in the assay on Lolium rigidum [22] and in the assay on Lolium rigidum [25] was 100% throughout. Moreover, the “herbicidal activity on Echinochloa crus-galli” value in the assay with Echinochloa crus-galli [6] and in the assay on Echinochloa crus-galli [14] was 100% in each case. For the same compound, the figures for the “herbicidal activity on Pharbitis purpurea” value in the assay with Pharbitis purpurea [18] and in the assay with Pharbitis purpurea [26] were 90% and 80%, respectively. For the same compound, the “herbicidal activity on Avena fatua” value with Avena fatua [23] and in the assay with Avena fatua [27] was 100% each time. Besides, the “herbicidal activity on Alopecurus myosuroides” value in the assay on Alopecurus myosuroides [7] and in the assay on Alopecurus myosuroides [28] was 100% throughout. For the same compound, the results for the “herbicidal activity on Abutilon theophrasti” value with Abutilon theophrasti [8] and with Abutilon theophrasti [15] were 90% and 100%, respectively. For the same compound, the “herbicidal activity on Viola tricolor” value in the assay on Viola tricolor [10] and with Viola tricolor [17] was 100% in each case. In the assay with Matricaria inodora [19], the “herbicidal activity on Matricaria inodora” value is reported as 100%. The “herbicidal activity on Veronica persica” value in the assay on Veronica persica [16] amounted to 100%.

Regarding `Cc1c(Sc2ccccc2)c(Oc2ncccn2)nn1C` [Example I-126], the “herbicidal activity on Setaria viridis” value in the assay on Setaria viridis [1] and with Setaria viridis [11] was 100% in each case. For the same compound, the “herbicidal activity on Matricaria inodora” value in the assay on Matricaria inodora [2] was 80%; with Matricaria inodora [19] it was 100%. The “herbicidal activity on Hordeum murinum” value is on record as 80% in the assay with Hordeum murinum [21] and 100% with Hordeum murinum [24]. The “herbicidal activity on Polygonum convolvulus” value with Polygonum convolvulus [3] and with Polygonum convolvulus [12] was 100% in each case. The “herbicidal activity on Stellaria media” value in the assay on Stellaria media [4] and with Stellaria media [20] was 100% in each case. Besides, the “herbicidal activity on Amaranthus retroflexus” value with Amaranthus retroflexus [5] and in the assay on Amaranthus retroflexus [13] was 100% in each case. Also, the “herbicidal activity on Echinochloa crus-galli” value with Echinochloa crus-galli [6] and in the assay on Echinochloa crus-galli [14] was 100% throughout. Moreover, the “herbicidal activity on Pharbitis purpurea” value in the assay on Pharbitis purpurea [18] is recorded as 100%; with Pharbitis purpurea [26], 90%. The “herbicidal activity on Alopecurus myosuroides” value with Alopecurus myosuroides [7] and with Alopecurus myosuroides [28] was 100% in each case. Also, the “herbicidal activity on Abutilon theophrasti” value in the assay on Abutilon theophrasti [8] and with Abutilon theophrasti [15] was 100% each time. The “herbicidal activity on Viola tricolor” value with Viola tricolor [10] and with Viola tricolor [17] was 100% in each case. Moreover, the “herbicidal activity on Lolium rigidum” value with Lolium rigidum [25] stood at 100%. Moreover, in the assay with Avena fatua [27], the “herbicidal activity on Avena fatua” value is given as 100%.

As to `COc1cnc(Oc2nn(C)c(C)c2Sc2ccccc2)nc1` [Example I-140], the “herbicidal activity on Setaria viridis” value in the assay on Setaria viridis [1] and in the assay with Setaria viridis [11] was 100% in each case. For the same compound, the “herbicidal activity on Matricaria inodora” value with Matricaria inodora [2] and with Matricaria inodora [19] was 100% each time. Besides, the “herbicidal activity on Hordeum murinum” value in the assay with Hordeum murinum [21] turned out to be 80%; with Hordeum murinum [24], 100%. For the same compound, the “herbicidal activity on Polygonum convolvulus” value in the assay on Polygonum convolvulus [3] and in the assay on Polygonum convolvulus [12] was 100% each time. Moreover, the “herbicidal activity on Stellaria media” value in the assay on Stellaria media [4] came out at 90%; with Stellaria media [20], 100%. Further, the “herbicidal activity on Amaranthus retroflexus” value in the assay with Amaranthus retroflexus [5] and in the assay on Amaranthus retroflexus [13] was 100% throughout. For the same compound, the “herbicidal activity on Lolium rigidum” value with Lolium rigidum [22] is on record as 80%; in the assay on Lolium rigidum [25], 100%. Moreover, the “herbicidal activity on Echinochloa crus-galli” value with Echinochloa crus-galli [6] and in the assay on Echinochloa crus-galli [14] was 100% in each case. For the same compound, the “herbicidal activity on Pharbitis purpurea” value with Pharbitis purpurea [18] is recorded as 100%. For the same compound, the “herbicidal activity on Alopecurus myosuroides” value with Alopecurus myosuroides [7] and in the assay with Alopecurus myosuroides [28] was 100% in each case. For the same compound, the “herbicidal activity on Abutilon theophrasti” value with Abutilon theophrasti [8] and in the assay on Abutilon theophrasti [15] was 100% in each case. Also, the “herbicidal activity on Veronica persica” value in the assay on Veronica persica [9] is given as 100%. For the same compound, the “herbicidal activity on Viola tricolor” value in the assay on Viola tricolor [10] and in the assay with Viola tricolor [17] was 100% in each case. In the assay on Avena fatua [27], the “herbicidal activity on Avena fatua” value amounted to 100%.
